Data set [1] in a line: Half-life in guinea pig liver microsomes in presence of NADPH regenerating system by LC/MS/MS method. It counts as ADME, Cavia porcellus, microsome. (In general: Liver microsomes are vesicles of endoplasmic reticulum, rich in cytochrome P450 enzymes.)
For data set [2], the system named is Cavia porcellus. The data set can be described thus: Half-life in guinea pig at 10 mg/kg, po by LC-MS/MS analysis. The data set is classed as ADME, organism-based. To be noted: in vivo.
Data set [3] in a line: Volume of distribution in guinea pig at 1 mg/kg, iv by LC-MS/MS analysis. It counts as ADME, organism-based, Cavia porcellus. To be noted: in vivo.
Data set [4] is filed under the species Homo sapiens. In words: Selectivity index, ratio of IC50 for human CYP3A4 to IC50 for recombinant CYP17 (unknown origin).
Data set [5] in a line: Half-life in guinea pig at 1 mg/kg, iv by LC-MS/MS analysis. To be noted: in vivo. It counts as ADME, organism-based, Cavia porcellus.
In data set [6] the target is T1, Steroid 17-alpha-hydroxylase/17,20 lyase (Homo sapiens, UniProt P05093).
T1 sequence (P05093 whole entry): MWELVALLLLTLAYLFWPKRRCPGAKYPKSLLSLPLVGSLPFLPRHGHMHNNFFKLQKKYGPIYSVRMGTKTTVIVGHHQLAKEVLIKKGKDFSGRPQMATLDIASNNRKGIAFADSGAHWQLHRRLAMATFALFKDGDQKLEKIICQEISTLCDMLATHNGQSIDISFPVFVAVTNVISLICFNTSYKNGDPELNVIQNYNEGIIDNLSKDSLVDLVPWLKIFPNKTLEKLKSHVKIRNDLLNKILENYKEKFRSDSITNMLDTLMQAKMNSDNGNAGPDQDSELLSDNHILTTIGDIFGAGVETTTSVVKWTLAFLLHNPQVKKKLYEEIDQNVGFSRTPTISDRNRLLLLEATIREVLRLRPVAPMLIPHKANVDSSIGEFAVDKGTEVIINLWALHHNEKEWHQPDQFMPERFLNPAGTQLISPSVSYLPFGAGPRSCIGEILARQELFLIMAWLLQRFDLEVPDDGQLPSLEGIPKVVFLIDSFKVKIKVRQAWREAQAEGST
In words: Inhibition of recombinant CYP17 (unknown origin) expressed in human AD293 cells using [21-3H]17alpha-hydroxypregnenolone as substrate preincubated for 60 mins followed by substrate addition measured after 4 hrs Topcount method. It counts as cell-based.

The nature of data set [7]: AUC (0 to infinity) in guinea pig at 1 mg/kg, iv by LC-MS/MS analysis. It counts as ADME, organism-based, Cavia porcellus. Details: dose 1 mg/kg, route intravenous, time infinity. Particulars: in vivo.
The test system of data set [8] is Cavia porcellus. The data set can be described thus: AUC (0 to infinity) in guinea pig at 10 mg/kg, po by LC-MS/MS analysis. Particulars: in vivo. On the set-up: dose 10 mg/kg, time infinity, route oral. It counts as ADME, organism-based.
Data set [9] can be described thus: Tmax in guinea pig at 1 mg/kg, iv by LC-MS/MS analysis. It counts as ADME, organism-based, Cavia porcellus. To be noted: in vivo.
Data set [10] in a line: Clearance in guinea pig at 1 mg/kg, iv by LC-MS/MS analysis. It counts as ADME, organism-based, Cavia porcellus. Particulars: in vivo.
The species named for data set [11] is Homo sapiens. In words: Selectivity index, ratio of IC50 for CYP19 (unknown origin) to IC50 for recombinant CYP17 (unknown origin).
Data set [12] in a line: Cmax in guinea pig at 1 mg/kg, iv by LC-MS/MS analysis. It counts as ADME, organism-based, Cavia porcellus. Details: dose 1 mg/kg, route intravenous. Particulars: in vivo.
The test system of data set [13] is Cavia porcellus. The data set can be described thus: Cmax in guinea pig at 10 mg/kg, po by LC-MS/MS analysis. The data set is classed as ADME, organism-based. Details: dose 10 mg/kg, route oral. Particulars: in vivo.
Data set [14] has as its system Cavia porcellus. In words: Oral bioavailability in guinea pig at 10 mg/kg by LC-MS/MS analysis. It counts as ADME, organism-based. Particulars: in vivo.

Take `CC(=O)N1CCN(c2ccc(OCC3COC(Cn4ccnc4)(c4ccc(Cl)cc4Cl)O3)cc2)CC1` (stereo unspecified) [KETOCONAZOLE]: in data set [1], the half-life was 0.667 h.

Regarding `O=S(=O)(N1CCN(c2ccc(/C=C/c3cc(F)cc(-c4ccncc4)c3)cc2)CC1)C(F)(F)F`, in [2], the t1/2 was found to be 5.25 h. The same molecule returned a Vd in data set [3] of 9.1 L/kg. The Ratio IC50 is 1560 in [4] and 167 in data set [11]. In addition, the half-life in data set [5] is 5 h; in [1], 1 h. Besides, the IC50 in data set [6] stood at 2 nM. In [7], this molecule gave an AUC(0-inf) of 815 ng·h/mL. In data set [8], this molecule showed an AUC of 2452 ng·h/mL. Also, in data set [9], the Tmax is 0.2 h. The molecule also came in with a clearance in data set [10] of 20.9 mL/min/kg. Further, the Cmax in data set [12] amounted to 203 ng/mL; in data set [13], 271 ng/mL.

Turning to `O=S(=O)(C1CC1)N1CCN(c2ccc(/C=C/c3cc(F)cc(Cn4ccnc4)c3)cc2)CC1`, the IC50 in data set [6] turned out to be 34 nM.

As for `CC(=O)N1CCN(c2ccc(/C=C/c3cc(F)cc(-c4ccncc4)c3)cc2)CC1`, the t1/2 in [2] turned out to be 6 h. In [3], this molecule gave a Vd of 14.8 L/kg. In addition, the values for the Ratio IC50 in data set [4] and in data set [11] were 151 and 2170, respectively. Moreover, the half-life in [5] is 6 h; in data set [1] it was 1 h. Further, the AUC(0-inf) in data set [7] came to 586 ng·h/mL. In data set [8], this molecule came in with an AUC of 14890 ng·h/mL. Further, in data set [9], the Tmax came out at 0.1 h. The clearance in data set [10] was determined as 28.5 mL/min/kg. Besides, the F in data set [14] was found to be 184.2%. Besides, the values for the Cmax in data set [12] and in data set [13] were 132 ng/mL and 1018 ng/mL, respectively.

With `O=S(=O)(C1CC1)N1CCN(c2ccc(/C=C/c3cc(F)cc(-c4ccncc4)c3)cc2)CC1`, in data set [6], the IC50 turned out to be 1 nM.

`CCS(=O)(=O)N1CCN(c2ccc(/C=C/c3cc(F)cc(-c4ccncc4)c3)cc2)CC1` had a t1/2 in data set [2] of 4.8 h. In data set [3], this molecule showed a Vd of 4.05 L/kg. In addition, the results for the Ratio IC50 in data set [4] and in data set [11] were 49 and 2000, respectively. Also, the half-life was 5.7 h in data set [5] and 1 h in data set [1]. In data set [7], this molecule gave an AUC(0-inf) of 2000 ng·h/mL. Also, in data set [8], the AUC was 4190 ng·h/mL. Moreover, the Tmax in [9] came to 0.15 h. Moreover, in data set [10], the clearance came to 8.79 mL/min/kg. Further, the Cmax in data set [12] worked out at 852 ng/mL; in [13] it was 540 ng/mL.

As to `N#CCS(=O)(=O)N1CCN(c2ccc(/C=C/c3cc(Cl)cc(-c4ccncc4)c3)cc2)CC1`, the IC50 in data set [6] stood at 6 nM.

Take `O=S(=O)(C(F)F)N1CCN(c2ccc(/C=C/c3cc(F)cc(Cn4ccnc4)c3)cc2)CC1`: the IC50 in data set [6] was determined as 5 nM.

Regarding `O=S(=O)(C(F)F)N1CCN(c2ccc(/C=C/c3cc(Cl)cc(-c4ccncc4)c3)cc2)CC1`, in [6], the IC50 is 5 nM.

Regarding `N=C(N)N1CCN(c2ccc(/C=C/c3cc(Cl)cc(-c4ccncc4)c3)cc2)CC1`, the IC50 in data set [6] is 17 nM.

Turning to `O=S(=O)(C(F)F)N1CCN(c2ccc(/C=C/c3cc(F)cc(-c4ccncc4)c3)cc2)CC1`, in [6], the IC50 stood at 5 nM.

One may read the half-life as how long it takes for the measured level to halve. Broadly, the Vd is the apparent volume that relates the amount in the body to the concentration in plasma or blood. Read a low Vd as little distribution into tissue. Usually IC50 stands for the point on the concentration scale where inhibition reaches its midpoint. What is called AUC(0-inf) is total exposure, with the tail of the curve extrapolated. High values mean high exposure, low ones low exposure. As usually defined, the AUC is the area under the concentration-time curve, a measure of exposure. The term Tmax denotes the time at which the peak concentration occurs. One may read the clearance as the volume of plasma or blood freed of the substance per unit of time. Lower therefore signals a low capacity for elimination. What is called Cmax is the peak of the concentration-time curve.

The values above are taken from ChEMBL document CHEMBL4118215, “Design and synthesis of functionalized piperazin-1yl-(E)-stilbenes as inhibitors of 17α-hydroxylase-C17,20-lyase (Cyp17)” (Bioorg Med Chem Lett, 2018).
